System: ApoB secretion, HepG2 cells
Assay: Quantification of the secretion of ApoB
Assay type: cell-based
Conditions: Homo sapiens, 24 hours of incubation with test compound, apoB immunoprecipitation, read-out: pIC50 values (= −log IC50 value) (converted)
Procedure: C. Pharmacological Examples C.1. Quantification of the Secretion of ApoB.
HepG2 cells were cultured in 24-well plates in MEM Rega 3 containing 10% fetal calf serum. At 70% confluency, the medium was changed and the test compound or carrier (DMSO, 0.4% final concentration) was added. After 24 hours of incubation, the medium was transferred to Eppendorf tubes and cleared by centrifugation. A sheep antibody directed against either apoB was added to the supernatant and the mixture was kept at 8° C. for 24 hours. Then, rabbit anti-sheep antibody was added and the immune complex was allowed to precipitate for 24 hours at 8° C. The immunoprecipitate was pelleted by centrifugation for 25 minutes at 1320 g and washed twice with a buffer containing 40 mM Mops, 40 mM NaH2PO4, 100 mM NaF, 0.2 mM DTT, 5 mM EDTA, 5 mM EGTA, 1% Triton-X-100, 0.5% sodium deoxycholate (DOC), 0.1% SDS, 0.2 μM leupeptin and 0.2 μM PMSF. Radioactivity in the pellet was quantified by liquid scintillation counting.
Resulting IC50 values are enumerated in Table C.1

| IC50 | SMILES |
| --- | --- |
| 1170 nM | CCNC(=O)C(c1ccccc1)N1CCC(Nc2ccc(NC(=O)c3ccccc3-c3ccc(C(F)(F)F)cc3)cc2)CC1 (stereo not shown) [Compound 110] |
| 39.4 nM | CCNC(=O)C(c1ccccc1)N(C)C1CCN(c2ccc(NC(=O)c3ccccc3-c3ccc(C(F)(F)F)cc3)cc2)C1 (stereo not shown) [Compound 112] |
| 94.8 nM | CCCNC(=O)C(c1ccccc1)N(C)C1CCN(c2ccc(NC(=O)c3ccccc3-c3ccc(C(F)(F)F)cc3)cc2)C1 (stereo not shown) [Compound 116] |
| 183 nM | CCOC(=O)C(NC1CCN(c2ccc(NC(=O)c3ccccc3-c3ccc(C(F)(F)F)cc3)cc2)C1)c1ccccc1 (stereo not shown) [Compound 105] |
| 948 nM | CCCNC(=O)C(NC1CCN(c2ccc(NC(=O)c3ccccc3-c3ccc(C(F)(F)F)cc3)cc2)CC1)c1ccccc1 (stereo not shown) [Compound 115] |
| 69 nM | CCCOC(=O)C(c1ccccc1)N(C)C1CCN(c2ccc(NC(=O)c3ccccc3-c3ccc(C(F)(F)F)cc3)cc2)C1 (stereo not shown) [Compound 108] |
| 3000 nM | CCCOC(=O)C(c1ccccc1)N1CCC(Nc2ccc(NC(=O)c3ccccc3-c3ccc(C(F)(F)F)cc3)cc2)CC1 (stereo not shown) [Compound 106] |
| 2610 nM | CCCNC(=O)C(c1ccccc1)N1CCC(Nc2ccc(NC(=O)c3ccccc3-c3ccc(C(F)(F)F)cc3)cc2)CC1 (stereo not shown) [Compound 114] |
| 1570 nM | CCCOC(=O)C(NC1CCN(c2ccc(NC(=O)c3ccccc3-c3ccc(C(F)(F)F)cc3)cc2)CC1)c1ccccc1 (stereo not shown) [Compound 107] |
| < 30 nM | CCCNC(=O)C(NC1CCN(c2ccc(NC(=O)c3ccccc3-c3ccc(C(F)(F)F)cc3)cc2)C1)c1ccccc1 (stereo not shown) [Compound 117] |
| 348 nM | CCNC(=O)C(NC1CCN(c2ccc(NC(=O)c3ccccc3-c3ccc(C(F)(F)F)cc3)cc2)CC1)c1ccccc1 (stereo not shown) [Compound 111] |
| 150 nM | CCCOC(=O)C(NC1CCN(c2ccc(NC(=O)c3ccccc3-c3ccc(C(F)(F)F)cc3)cc2)C1)c1ccccc1 (stereo not shown) [Compound 109] |
| < 30 nM | CCOC(=O)C(c1ccccc1)N(C)C1CCN(c2ccc(NC(=O)c3ccccc3-c3ccc(C(F)(F)F)cc3)cc2)C1 (stereo not shown) [Compound 104] |
| > 3000 nM | CCOC(=O)C(c1ccccc1)N1CCC(Nc2ccc(NC(=O)c3ccccc3-c3ccc(C(F)(F)F)cc3)cc2)CC1 (stereo not shown) [Compound 102] |
| 10.7 nM | CCNC(=O)C(NC1CCN(c2ccc(NC(=O)c3ccccc3-c3ccc(C(F)(F)F)cc3)cc2)C1)c1ccccc1 (stereo not shown) [Compound 113] |
| 40.9 nM | COC(=O)C(NC1CCN(c2ccc(NC(=O)c3ccccc3-c3ccc(C(F)(F)F)cc3)cc2)C1)c1ccccc1 (stereo not shown) [Compound 101] |
| 1600 nM | CCOC(=O)C(NC1CCN(c2ccc(NC(=O)c3ccccc3-c3ccc(C(F)(F)F)cc3)cc2)CC1)c1ccccc1 (stereo not shown) [Compound 103] |

The remaining lines, values behind:

| SMILES | IC50 |
| --- | --- |
| CCCOC(=O)C(c1ccccc1)N(C)CCN(C)c1ccc(NC(=O)c2ccccc2-c2ccc(C(F)(F)F)cc2)cc1 (stereo not shown) [Compound 15] | 757 nM |
| CCCNC(=O)C(c1ccccc1)N(C)CCN(C)c1ccc(NC(=O)c2ccccc2-c2ccc(C(F)(F)F)cc2)cc1 (stereo not shown) [Compound 27] | 625 nM |
| CCCOC(=O)C(NCCNc1ccc(NC(=O)c2ccccc2-c2ccc(C(F)(F)F)cc2)cc1)c1ccccc1 (stereo not shown) [Compound 12] | 689 nM |
| CCOC(=O)C(NCCNc1ccc(NC(=O)c2ccccc2-c2ccc(C(F)(F)F)cc2)cc1)c1ccccc1 (stereo not shown) [Compound 7] | 330 nM |
| CCCNC(=O)C(NC1CCC(Nc2ccc(NC(=O)c3ccccc3-c3ccc(C(F)(F)F)cc3)cc2)CC1)c1ccccc1 (stereo not shown) [Compound 29] | 753 nM |
| COC(=O)C(c1ccccc1)N(C)CCN(C)c1ccc(NC(=O)c2ccccc2-c2ccc(C(F)(F)F)cc2)cc1 (stereo not shown) [Compound 4] | 98.4 nM |
| COC(=O)C(NCC(C)(C)CNc1ccc(NC(=O)c2ccccc2-c2ccc(C(F)(F)F)cc2)cc1)c1ccccc1 (stereo not shown) [Compound 5] | 1020 nM |
| CCOC(=O)C(NCCCNc1ccc(NC(=O)c2ccccc2-c2ccc(C(F)(F)F)cc2)cc1)c1ccccc1 (stereo not shown) [Compound 8] | 129 nM |
| CCCOC(=O)C(c1ccccc1)N(C)CCCN(C)c1ccc(NC(=O)c2ccccc2-c2ccc(C(F)(F)F)cc2)cc1 (stereo not shown) [Compound 14] | 938 nM |
| CCCNC(=O)C(NCC(C)(C)CNc1ccc(NC(=O)c2ccccc2-c2ccc(C(F)(F)F)cc2)cc1)c1ccccc1 (stereo not shown) [Compound 28] | 1490 nM |
| CCCNC(=O)C(NCCCNc1ccc(NC(=O)c2ccccc2-c2ccc(C(F)(F)F)cc2)cc1)c1ccccc1 (stereo not shown) [Compound 25] | 948 nM |
| CCCNC(=O)C(c1ccccc1)N(C)CCCN(C)c1ccc(NC(=O)c2ccccc2-c2ccc(C(F)(F)F)cc2)cc1 (stereo not shown) [Compound 26] | 1970 nM |
| CCCOC(=O)C(NCCCNc1ccc(NC(=O)c2ccccc2-c2ccc(C(F)(F)F)cc2)cc1)c1ccccc1 (stereo not shown) [Compound 13] | 488 nM |
| CCNC(=O)C(c1ccccc1)N(C)CCCN(C)c1ccc(NC(=O)c2ccccc2-c2ccc(C(F)(F)F)cc2)cc1 (stereo not shown) [Compound 20] | 1930 nM |
| COC(=O)C(NC1CCN(c2ccc(NC(=O)c3ccccc3-c3ccc(C(F)(F)F)cc3)cc2)CC1)c1ccccc1 (stereo not shown) [Compound 98] | 1580 nM |
| CCCOC(=O)C(NCC(C)(C)CNc1ccc(NC(=O)c2ccccc2-c2ccc(C(F)(F)F)cc2)cc1)c1ccccc1 (stereo not shown) [Compound 16] | 1260 nM |

| SMILES | IC50 |
| --- | --- |
| CCNC(=O)C(NCCNc1ccc(NC(=O)c2ccccc2-c2ccc(C(F)(F)F)cc2)cc1)c1ccccc1 (stereo not shown) [Compound 18] | < 30 nM |
| CCOC(=O)C(c1ccccc1)N(C)CCN(C)c1ccc(NC(=O)c2ccccc2-c2ccc(C(F)(F)F)cc2)cc1 (stereo not shown) [Compound 9] | 566 nM |
| CCNC(=O)C(NC1CCC(Nc2ccc(NC(=O)c3ccccc3-c3ccc(C(F)(F)F)cc3)cc2)CC1)c1ccccc1 (stereo not shown) [Compound 23] | 1570 nM |
| CCOC(=O)C(NCC(C)(C)CNc1ccc(NC(=O)c2ccccc2-c2ccc(C(F)(F)F)cc2)cc1)c1ccccc1 (stereo not shown) [Compound 10] | 948 nM |
| COC(=O)C(NC1CCC(Nc2ccc(NC(=O)c3ccccc3-c3ccc(C(F)(F)F)cc3)cc2)CC1)c1ccccc1 (stereo not shown) [Compound 6] | 2070 nM |
| CCNC(=O)C(NCCCNc1ccc(NC(=O)c2ccccc2-c2ccc(C(F)(F)F)cc2)cc1)c1ccccc1 (stereo not shown) [Compound 19] | 229 nM |
| CCOC(=O)C(NC1CCC(Nc2ccc(NC(=O)c3ccccc3-c3ccc(C(F)(F)F)cc3)cc2)CC1)c1ccccc1 (stereo not shown) [Compound 11] | 1370 nM |
| CCNC(=O)C(c1ccccc1)N(C)CCN(C)c1ccc(NC(=O)c2ccccc2-c2ccc(C(F)(F)F)cc2)cc1 (stereo not shown) [Compound 21] | 506 nM |
| COC(=O)C(c1ccccc1)N(C)C1CCN(c2ccc(NC(=O)c3ccccc3-c3ccc(C(F)(F)F)cc3)cc2)C1 (stereo not shown) [Compound 100] | 41.7 nM |
| CCCNC(=O)C(NCCNc1ccc(NC(=O)c2ccccc2-c2ccc(C(F)(F)F)cc2)cc1)c1ccccc1 (stereo not shown) [Compound 24] | 171 nM |
| COC(=O)C(NCCCNc1ccc(NC(=O)c2ccccc2-c2ccc(C(F)(F)F)cc2)cc1)c1ccccc1 (stereo not shown) [Compound 2] | 317 nM |
| COC(=O)C(c1ccccc1)N(C)CCCN(C)c1ccc(NC(=O)c2ccccc2-c2ccc(C(F)(F)F)cc2)cc1 (stereo not shown) [Compound 3] | 766 nM |
| CCCOC(=O)C(NC1CCC(Nc2ccc(NC(=O)c3ccccc3-c3ccc(C(F)(F)F)cc3)cc2)CC1)c1ccccc1 (stereo not shown) [Compound 17] | 809 nM |
| CCNC(=O)C(NCC(C)(C)CNc1ccc(NC(=O)c2ccccc2-c2ccc(C(F)(F)F)cc2)cc1)c1ccccc1 (stereo not shown) [Compound 22] | 1030 nM |
| COC(=O)C(NCCNc1ccc(NC(=O)c2ccccc2-c2ccc(C(F)(F)F)cc2)cc1)c1ccccc1 (stereo not shown) [Compound 1] | 71 nM |

System: not given
Assay: not given
Conditions: not given

| melting point | SMILES |
| --- | --- |
| 142 °C | COC(=O)C(NC/C=C/c1ccc(NC(=O)c2ccccc2-c2ccc(C(F)(F)F)cc2)cc1)c1ccccc1 (stereo not shown) [Compound 137] |
